According to patent publication US20050085420A1, “Method of modulating apoptosis and compositions thereof” (priority 2003, published 2005):

Key:
Type in all cases: cell-based, mouse
wt MEF cell lines [1] = assay: BAK oligomerization by gel filtration after staurosporine, wt cells
Method: (§1) FIG. 4F is a photograph depicting mitochondria isolated from wt or vdac2 -/- MEF cell lines with or without treatment with STS for 5 hours were solubilized in 2% CHAPS buffer. 200 μg of lysate was subjected to Superdex 200 (HR 10/30) gel filtration column chromatography. Fractions were analyzed by an immunoblot developed with anti-BAK antibody.
(§2) The chromatographic step of Superdex 200 (HR 10/30, Amersham-Pharmacia) was performed on an automatic fast protein liquid chromatography (FPLC) station (Amersham-Pharmacia) at 4° C. […] Fractions of 0.6 ml were collected, precipitated by trichloroacetic acid, and analyzed by an immunoblot (fractions 16-31) developed with an anti-BAK Ab.
(§3) In contrast, the response of wt- and vdac2-dificient cells was similar when the extrinsic death pathway was activated by TNFα (FIG. 4E). […] BAK already underwent oligomerization within 5 hours after staurosporine treatment in vdac2 -/- cells but not wt cells, as assessed by gel filtration (FIG. 4F) (X. Roucou, S. Montessuit, B. Antonsson, J. C. Martinou, Biochem J 368, 915-21. (2002)). […]

vdac2 -/- MEF cell lines [2] = assay: BAK oligomerization by gel filtration after staurosporine, vdac2 -/- cells
Method: as §1, §2, §3

wt MEF cell lines [3] = assay: Cytochrome c release assay (subcellular fractionation, immunoblot), wt cells; conditions: 1 μM staurosporine
Method: (§4) FIG. 4C is a photograph depicting treatment of wt or vdac2 -/- MEF cell lines with 1 μM STS. The wt or vdac2 -/- MEF cell lines were subcellularly fractionated (see method) at indicated time points. Cytochrome c distribution in the cytosol versus mitochondria was assessed by immunoblot developed with an anti-cytochrome c antibody.
(§5) MEF cell lines treated with 1 μM staurosporine were harvested at various time points and lysed for 5 min in isotonic buffer containing 10 mM KCl, 5 mM MgCl2, 1 mM EDTA, 1 mM EGTA, 250 mM sucrose, 20 mM Hepes, pH 7.2, 0.025% digitonin, and complete protease inhibitors (Roche). Organelles that contain mitochondria were removed from the soluble cytosolic fraction by pelleting at 15000 g. Supernatant and mitochondrial pellets were solubilized in SDS-PAGE loading buffer and analyzed by an immunoblot, developed with an anti-cytochrome c Ab. […]
as §3

vdac2 -/- MEF lines = assay: Cytochrome c fluorescence microscopy after staurosporine, vdac2 -/- MEF line; conditions: 1 μM STS, 4 hours
Method: (§6) FIG. 4D is a photograph depicting two-color fluorescence microscopy of wt and vdac2 -/- MEF lines at 4 hours following 1 μM STS. Red indicates cytochrome c and blue is Hoechst staining of DNA.
(§7) MEF cell lines treated with 1 μM staurosporine were harvested at various time points and lysed for 5 min in isotonic buffer containing 10 mM KCl, 5 mM MgCl2, 1 mM EDTA, 1 mM EGTA, 250 mM sucrose, 20 mM Hepes, pH 7.2, 0.025% digitonin, and complete protease inhibitors (Roche). Organelles that contain mitochondria were removed from the soluble cytosolic fraction by pelleting at 15000 g. Supernatant and mitochondrial pellets were solubilized in SDS-PAGE loading buffer and analyzed by an immunoblot, developed with an anti-cytochrome c Ab. Protein cross-linking, immunoblot, immunoprecipitation, isolation of mitochondria, cell viability assays, and anti-cytochrome c immunohistochemistry were described previously E. H. Cheng et al., Mol Cell 8, 705-11. (2001).

wt MEF lines = assay: Cytochrome c fluorescence microscopy after staurosporine, wt MEF line; conditions: 1 μM STS, 4 hours
Method: as §6, §7

vdac2 -/- MEF cell lines [4] = assay: Cytochrome c release assay (subcellular fractionation, immunoblot), vdac2 -/- cells; conditions: 1 μM staurosporine
Method: as §4, §5, §3

Bax -/- MEFs = assay: Annexin-V cell death after retroviral expression of VDAC1 or VDAC2 in Bax -/- MEFs; conditions: Bax -/- cells
Method: (§8) FIG. 3A are two graphs illustrating Bax -/- or Bak -/- MEFs at 2 days following retroviral expression of VDAC1, VDAC2, or GFP (MIG vector control), wherein the Bax -/- or Bak -/- MEFs were treated with 1.2 μM staurosporine (STS). Cell death was quantitated by flow cytometric detection of Annexin-V staining at indicated time points. Values shown are mean ±1 SD of three independent experiments.
(§9) FIG. 3B is a histogram depicting Bax -/- or Bak -/- MEFs at 2 days following retroviral expression of VDAC2 or GFP (MIG vector control), wherein the Bax -/- or Bak -/- MEFs were infected with tBID-expressing retrovirus. Cell death was quantitated by flow cytometric detection of Annexin-V staining at 24 hr. Values shown are mean ±1 SD of three independent experiments.
as §8, with “6” for “3A”, “that depict” for “illustrating”, “10 μg/ml etoposide.” for “1.2 μM staurosporine (STS).”
(§10) Previous studies have shown that cells doubly deficient for BAX and BAK are resistant to intrinsic death stimuli, whereas cells singly deficient for BAX or BAK are still susceptible (M. C. Wei et al., Science 292, 727-30. (2001)). As VDAC2 interacts with BAK but not BAX, the ability of VDAC2 to modulate apoptosis mediated by BAK or BAX was tested. According to one hypothesis, VDAC2 might function as an inhibitor of BAK or VDAC2 itself might function as a proapoptotic factor once released from BAK. To address these alternatives VDAC 1 or VDAC2 was expressed in Bax -/- or Bak -/- singly deficient mouse embryonic fibroblasts (MEFs) followed by treatment with staurosporine or etoposide. […] Expression of VDAC2 inhibited tBID-induced apoptosis of Bax -/- cells but not Bak -/- cells, further supporting a selective role for VDAC2 in negatively regulating BAK-dependent apoptosis (FIG. 3B).

vdac2 -/- MEFs = assay: Re-expression of VDAC2 in vdac2 -/- MEFs, Annexin-V cell death; conditions: normal physiologic levels, 1.2 μM staurosporine 6 hr
Method: FIG. 3E is a histogram depicting infection of primary vdac2 -/- MEFs with retrovirus expressing GFP (MIG vector control) or VDAC2-IRES-GFP. At 36 hours the GFP-positive cells isolated by MoFlo sorting were treated with 1.2 μM staurosporine for 6 hr. Cell death was quantitated by flow cytometric detection of Annexin-V staining. Values shown are mean ±1 SD of three independent experiments.

Bak -/- MEFs = assay: Annexin-V cell death after retroviral expression of VDAC1 or VDAC2 in Bak -/- MEFs; conditions: Bak -/- cells
Method: as §8, §9
as §8, with “6” for “3A”, “that depict” for “illustrating”, “10 μg/ml etoposide.” for “1.2 μM staurosporine (STS).”
as §10

[5] = retroviral expression, 1.2 μM staurosporine or 10 μg/ml etoposide, Annexin-V
[6] = tBID-expressing retrovirus, Annexin-V at 24 hr

Row | Molecule | time to BAK oligomerization (wt MEF cell lines [1]) | time to BAK oligomerization (vdac2 -/- MEF cell lines [2]) | release of cytochrome c at 3 and 5 hours (wt MEF cell lines [3]) | cells with diffuse cytosolic staining for cytochrome c (vdac2 -/- MEF lines) | cells with diffuse cytosolic staining for cytochrome c (wt MEF lines) | time of complete release of cytochrome c (vdac2 -/- MEF cell lines [4]) | time of partial release of cytochrome c into the cytosol (vdac2 -/- MEF cell lines [4]) | apoptosis after staurosporine or etoposide (Bax -/- MEFs; [5]) | tBID-induced apoptosis (Bax -/- MEFs; [6]) | susceptibility to apoptosis after re-expression (vdac2 -/- MEFs) | apoptosis after staurosporine or etoposide (Bak -/- MEFs; [5]) | tBID-induced apoptosis (Bak -/- MEFs; [6])
1 | CN[C@@H]1C[C@H]2O[C@@](C)([C@@H]1OC)n1c3ccccc3c3c4c(c5c6ccccc6n2c5c31)C(=O)NC4 [staurosporine] | ~10 h | ≤ 5 h | had not initiated any release of cytochrome c | 83% | 16% | ≤ 5 h | ≤ 3 h | – | – | – | – | –
2 | VDAC2: Voltage-Dependent Anion Channel-2, murine, retrovirally expressed (protein, UniProt Q60930 1-295, looked up) Non-selective voltage-gated …: MAECCVPVCPRPMCIPPPYADLGKAARDIFNKGFGFGLVKLDVKTKSCSGVEFSTSGSSNTDTGKVSGTLETKYKWCEYGLTFTEKWNTDNTLGTEIAIEDQICQGLKLTFDTTFSPNTGKKSGKIKSAYKRECINLGCDVDFDFAGPAIHGSAVFGYEGWLAGYQMTFDSAKSKLTRSNFAVGYRTGDFQLHTNVNNGTEFGGSIYQKVCEDFDTSVNLAWTSGTNCTRFGIAAKYQLDPTASISAKVNNSSLIGVGYTQTLRPGVKLTLSALVDGKSFNAGGHKLGLALELEA | – | – | – | – | – | – | – | significantly inhibited apoptosis | inhibited | reversed the increased susceptibility to apoptosis | no effect | not
